Test: Optimal amount of Polysorbate 20: solubility of the solution after storage, by naked eye
Type: physicochemical
Parameters: key: + not dissolved (or deposited); - dissolved
Details: KRN7000 200 µg/ml, 25°C
Experimental: Next, 20 mg of the active component (KRN7000) was weighed and stirred in 100 ml of the Polysorbate solutions having a variety of concentrations in a heated bath at 80°C for 20 minutes in order to form a solution. After cooling with running water, the mixture was filtered through a 0.22 µm filter, and transparent colorless glass vials having a volume of 5 ml were charged with a 2 ml portion of each of a variety of solutions and sealed up.
These samples were stored at 25°C for 2 weeks, and judged of their solubility. The samples judged in solution were further stored, and judged again of their solubility after 1 month.
The solubility was judged by cleaning the outside of the vial and placing it beneath the white light source in the darkroom for observation with naked eye at the position of a luminous intensity of about 5,000 lux. When the sample was clear with no precipitates, it was judged that the active component was dissolved.

## CCCCCCCCCCCCCCCCCCCCCCCCCC(=O)N[C@@H](CO[C@H]1O[C@H](CO)[C@H](O)[C@H](O)[C@H]1O)[C@H](O)[C@H](O)CCCCCCCCCCCCCC [KRN7000, (2S,3S,4R)-1-(α-D-galactopyranosyloxy)-2-hexacosanoylamino-3,4-octadecanediol]
Polysorbate 20 0.1%, 2 weeks
  Variation with the passage of time after storage (by naked eye): +
Polysorbate 20 0.2%, 2 weeks
  Variation with the passage of time after storage (by naked eye): +
Polysorbate 20 0.3%, 1 month
  Variation with the passage of time after storage (by naked eye): +
Polysorbate 20 0.3%, 2 weeks
  Variation with the passage of time after storage (by naked eye): -
Polysorbate 20 0.5%, 1 month
  Variation with the passage of time after storage (by naked eye): +
Polysorbate 20 0.5%, 2 weeks
  Variation with the passage of time after storage (by naked eye): -
Polysorbate 20 1.0%, 1 month
  Variation with the passage of time after storage (by naked eye): +
Polysorbate 20 1.0%, 2 weeks
  Variation with the passage of time after storage (by naked eye): -
Polysorbate 20 2.0%, 1 month
  Variation with the passage of time after storage (by naked eye): +
Polysorbate 20 2.0%, 2 weeks
  Variation with the passage of time after storage (by naked eye): -
Polysorbate 20 4.0%, 1 month
  Variation with the passage of time after storage (by naked eye): +
Polysorbate 20 4.0%, 2 weeks
  Variation with the passage of time after storage (by naked eye): -
Polysorbate 20 8.0%, 1 month
  Variation with the passage of time after storage (by naked eye): +
Polysorbate 20 8.0%, 2 weeks
  Variation with the passage of time after storage (by naked eye): -

— patent EP1016409B1, “FREEZE DRIED COMPOSITION COMPRISING GLYCOSPHINGOLIPIDS” (KIRIN BEER KABUSHIKI KAISHA, priority 1997, dated 1998)
